Active and inactive are the calls of the source. The calls are words filed in the database; no cut-off is given here.
How the values were obtained:
HGC-27 [1] = experiment: Inhibition of colony formation in human HGC-27 cells at 1 to 8 uM after 7 to 10 days by crystal violet staining based assay; format: functional, cell-based; settings: dose 1-8 µM, time 7-10 day, DDE = dose-dependent effect
HGC-27 [2] = experiment: Inhibition of cell migration in human HGC-27 cells assessed as reduction in migration at 1 to 8 uM for 24 hrs by transwell migration assay; format: functional, cell-based; settings: dose 1-8 µM, DDE = dose-dependent effect
MGC-803 [3] = experiment: Down regulation of MMP9 expression in human MGC-803 cells at 1.25 to 10 uM after 24 hrs by western blot analysis; format: functional, cell-based; settings: dose 1.25-10 µM, DDE = dose-dependent effect
HGC-27 [4] = experiment: Down regulation of MMP9 expression in human HGC-27 cells at 2 to 16 uM after 24 hrs by western blot analysis; format: functional, cell-based; settings: dose 2-16 µM, DDE = dose-dependent effect
MGC-803 [5] = experiment: Induction of cell cycle arrest in human MGC-803 cells assessed as cells accumulation at G2/M phase at 1.25 to 10 uM after 48 hrs by propidium iodide staining based flow cytometric analysis(reference value: 13.1%); format: functional; settings: dose 1.25-10 µM
MGC-803 [6] = experiment: Induction of apoptosis in human MGC-803 cells assessed as increase in twin-kiling cell nuclei at 1.25 to 10 uM by Hoechst 33342 staining based fluorescent microscopic analysis; format: functional; settings: dose 1.25-10 µM
MGC-803 [7] = experiment: Induction of apoptosis in human MGC-803 cells assessed as increase in apoptotic cells at 1.25 to 10 uM after 48 hr by AnnexinV-FITC/PI staining based flow cytometric analysis (reference value: 2.71%); format: functional, cell-based; settings: dose 1.25-10 µM, DDE = dose-dependent effect
HGC-27 [8] = experiment: Induction of mitochondrial membrane potential loss in human HGC-27 cells assessed as TMRE positive cells at 2 to 16 uM by TRME staining based flow cytometric analysis (reference value: 5.8%); format: functional, cell-based; settings: dose 2-16 µM, DDE = dose-dependent effect
MGC-803 [9] = experiment: Induction of apoptosis in human MGC-803 cells assessed as increase in Bax expression at 1.25 to 10 uM by western blot analysis; format: functional, cell-based; settings: dose 1.25-10 µM, DDE = dose-dependent effect
HGC-27 [10] = experiment: Induction of apoptosis in human HGC-27 cells assessed as increase in cleaved caspase-9 expression at 2 to 16 uM by western blot analysis; format: functional, cell-based; settings: dose 2-16 µM, DDE = dose-dependent effect
MGC-803 [11] = experiment: Inhibition of PI3K/AKT/mTOR signalling pathway in human MGC-803 cells assessed as reduction in PI3K phosphorylation at 1.25 to 10 uM by western blot analysis; format: cell-based; settings: dose 1.25-10 µM, DDE = dose-dependent effect
HGC-27 [12] = experiment: Inhibition of PI3K/AKT/mTOR signalling pathway in human HGC-27 cells assessed as reduction in PI3K phosphorylation at 2 to 16 uM by western blot analysis; format: cell-based; settings: dose 2-16 µM, DDE = dose-dependent effect
MGC-803 [13] = experiment: Inhibition of PI3K/AKT/mTOR signalling pathway in human MGC-803 cells assessed as reduction in AKT phosphorylation at 1.25 to 10 uM by western blot analysis; format: cell-based; settings: dose 1.25-10 µM, DDE = dose-dependent effect
MGC-803 [14] = experiment: Inhibition of PI3K/AKT/mTOR signalling pathway in human MGC-803 cells assessed as reduction in mTOR phosphorylation at 1.25 to 10 uM by western blot analysis; format: cell-based; settings: dose 1.25-10 µM, DDE = dose-dependent effect
Homo sapiens = species: Homo sapiens; experiment: Inhibition of DNA topoisomerase 1 (unknown origin) assessed as relaxation of supercoiled plasmid pBR322 DNA at 12.5 to 100 uM incubated for 30 mins by agarose gel electrophoresis; settings: dose 12.5-100 µM
MGC-803 [15] = experiment: Antitumor activity against human MGC-803 cells xenografted in immunodeficient nude mouse assessed as reduction in tumor growth at 50 mg/kg, ip administered for 3 weeks relative to control; format: functional; settings: MGC-803, 504 h, read-out: TGI
MGC-803 [16] = experiment: Antitumor activity against human MGC-803 cells xenografted in immunodeficient nude mouse assessed as increase in TUNEL positive cells at 50 mg/kg, ip administered for 3 weeks by fluorescence microscopic analysis; format: functional, organism-based

Oc1c(Cc2nccc3cc4c(cc23)OCO4)ccc2c1OCO2
inhibition (HGC-27 [1]): Dde
inhibition (HGC-27 [2]): Dde
Activity (MGC-803 [3]): Dde
Activity (HGC-27 [4]): Dde
Activity (MGC-803 [5]): 54.4%
Activity (MGC-803 [6]): 29.5%
Activity (MGC-803 [6]; DDE = dose-dependent effect): Dde
Activity (MGC-803 [7]): Dde
Activity (HGC-27 [8]): Dde
Activity (MGC-803 [9]): Dde
Activity (HGC-27 [10]): Dde
inhibition (MGC-803 [11]): Dde
inhibition (HGC-27 [12]): Dde
inhibition (MGC-803 [13]): Dde
inhibition (MGC-803 [14]): Dde
inhibition (Homo sapiens): Active
inhibition in vivo at 50 mg/kg (MGC-803 [15]): 63.8%
Activity (MGC-803 [16]): Active

— ChEMBL document CHEMBL5143625, “Isolation, synthesis and bioactivity evaluation of isoquinoline alkaloids from Corydalis hendersonii Hemsl. against gastric cancer in vitro and in vivo” (Bioorg Med Chem, 2022)
